Laboratory results: patent publication US5935997A, “O-thiocarbamoyl-aminoalkanol compounds, their pharmaceutically useful salts and process for preparing the same” (Yukong Limited, priority 1998, dated 1999)

Tests used:
mice (CD-1strain) = assay: Maximal ElectroShock (MES) test (anticonvulsant); format: in vivo; settings: for MES (animals protected/tested): 30 mg/kg; for ED50: Mus musculus
mice (CD-1 strain) = assay: Forced Swimming Test (antidepressant; reduction of immobility); format: in vivo; settings: one hour prior to immersion, immobility in 15 min
Procedure: The therapeutic use of the compounds claimed in the present invention as antidepressants has been proven by the "Forced Swinuning Test", a well known pharmacological screening methods for depression and the results are shown in the following Table II. The procedure described by Porsolt et al., […] was used. Test compound was administered p.o. and i.p. to mice (CD-1 strain), one hour prior to the animals being immersed in a 1500 mL glass beaker (16.5 cm deep, 13.0 cm diameter) filled with water (20~23° C.) to about 5 cm from the top. Mice were kept in the water for a period of 15 minutes and the duration of immobility observed within the 15-minute test period was recorded. A mouse was judged to be immobile if it floated motionlessly in the water making only those movements necessary to keep its head above the water.

CNC(=S)OC[C@H](N)Cc1ccccc1
MES (animals protected/tested) (mice (CD-1strain); po, 0.5 h): 3/3

NC(=S)OC[C@@H](N)Cc1ccccc1
Inhibition (reduction, %) (mice (CD-1 strain); i.p. (30 mg/kg)): 51.2%

NC(=S)OC[C@H](N)Cc1ccccc1 [drawing 22]
Inhibition (reduction, %) (mice (CD-1 strain); i.p. (30 mg/kg)): 41.6%

CNC(=S)OCC(Cc1ccccc1)N(C)C (stereo not drawn) [drawing 33]
ED50 (mice (CD-1strain); ip, 1 h): 31.5 mg/kg
ED50 (mice (CD-1strain); po, 0.5 h): 82.5 mg/kg

CN(C)C(=S)OC[C@H](N)Cc1ccc(Cl)c(Cl)c1
MES (animals protected/tested) (mice (CD-1strain); ip, 4.0 h): 1/3

NC(=S)OCC(N)Cc1ccc(Cl)cc1 (stereo not drawn)
Inhibition (reduction, %) (mice (CD-1 strain); i.p. (30 mg/kg)): 30.6%
Inhibition (reduction, %) (mice (CD-1 strain); p.o. (30 mg/kg)): 38.1%

CNC(=S)OCC(Cc1ccccc1)N(C)C (stereo not drawn) [drawing 26]
Inhibition (reduction, %) (mice (CD-1 strain); i.p. (30 mg/kg)): 31.4%
Inhibition (reduction, %) (mice (CD-1 strain); p.o. (30 mg/kg)): 23.4%

NC(=S)OC[C@H](N)Cc1ccccc1 [drawing 29]
ED50 (mice (CD-1strain); ip, 0.5 h): 29 mg/kg
ED50 (mice (CD-1strain); po, 0.5 h): 189 mg/kg
